Data from paper PMC9550643 (iScience, 2022).
Read-outs that look alike come from different tables or passages of the source.

Columns and labels:
estrogen receptor = conditions: ref Kolle et al., 2010; cited from earlier work
[1] = target: T1, estrogen receptor-α (ERα) (Homo sapiens, UniProt P03372); format: cell-based; conditions: iER-GFP cells, 2 h; mixtures as dilution series, chemicals 1 nM to 100 μM
T1 sequence (P03372 1-595): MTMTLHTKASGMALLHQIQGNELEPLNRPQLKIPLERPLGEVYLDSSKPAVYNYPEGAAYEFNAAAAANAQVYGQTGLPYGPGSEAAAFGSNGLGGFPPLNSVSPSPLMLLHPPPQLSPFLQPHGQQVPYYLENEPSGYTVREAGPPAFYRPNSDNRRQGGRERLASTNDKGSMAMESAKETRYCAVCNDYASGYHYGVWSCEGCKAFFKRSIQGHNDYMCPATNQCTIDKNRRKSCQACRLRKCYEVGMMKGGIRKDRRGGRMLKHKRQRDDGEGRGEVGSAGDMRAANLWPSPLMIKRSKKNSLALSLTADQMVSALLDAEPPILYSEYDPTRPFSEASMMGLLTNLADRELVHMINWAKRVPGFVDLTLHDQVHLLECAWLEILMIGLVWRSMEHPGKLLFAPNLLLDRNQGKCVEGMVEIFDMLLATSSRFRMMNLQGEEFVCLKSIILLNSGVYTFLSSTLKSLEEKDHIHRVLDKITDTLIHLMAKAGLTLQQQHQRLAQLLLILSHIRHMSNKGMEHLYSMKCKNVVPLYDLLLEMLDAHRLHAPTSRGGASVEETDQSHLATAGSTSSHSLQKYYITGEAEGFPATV

[2] = system: SRC-1, SRC-3, and phosphorylated RNA Pol II (serine 5); test: Immunofluorescence of co-activator and RNA Pol II recruitment to the PRL-array; format: cell-based, Human; conditions: GFP-ER and iER-GFP cells, 10 nM, 2 h
dsRed2skl mRNA = format: cell-based, Human; conditions: 2 h

C[C@]12C[C@H](O)[C@H]3[C@@H](CCC4=CC(=O)CC[C@@]43C)[C@@H]1CC[C@@H]2C(=O)CO [Corticosterone]
activity in yeast-based estrogenic assays (estrogen receptor): (anti-)estrogenic activity

OC(c1ccc(Cl)cc1)(c1ccc(Cl)cc1)C(Cl)(Cl)Cl [Dicofol]
chromatin binding activity (AUC) as share of the activity observed with E2 [1]: at least 10%

C[C@]12CC[C@@H]3c4ccc(O)cc4CC[C@H]3[C@@H]1CC[C@@H]2O [E2, 17β-estradiol]
recruitment of SRC-3 to the PRL-array [2]: strong recruitment | dsRed2skl FISH signal, increase above untreated (dsRed2skl mRNA; GFP-ER cells): 3.2 fold | maximal induced dsRed2skl FISH signal (dsRed2skl mRNA; GFP-ER cells): 39,685 ± 2338 IU | dsRed2skl FISH signal, increase above untreated (dsRed2skl mRNA; iER-GFP cells): 11.4 fold | maximal induced dsRed2skl FISH signal (dsRed2skl mRNA; iER-GFP cells): 234,008 ± 1329 IU | dsRed2skl FISH signal, increase above untreated (dsRed2skl mRNA; iGFP-ER cells): 5.0 fold | maximal induced dsRed2skl FISH signal (dsRed2skl mRNA; iGFP-ER cells): 84,564 ± 628 IU

COc1ccc(C(c2ccc(OC)cc2)C(Cl)(Cl)Cl)cc1 [Methoxychlor]
chromatin binding activity (AUC) as share of the activity observed with E2 [1]: at least 10%

CC(=O)[C@H]1CC[C@H]2[C@@H]3CCC4=CC(=O)CC[C@]4(C)[C@H]3CC[C@]12C [Progesterone]
activity in yeast-based estrogenic assays (estrogen receptor): (anti-)estrogenic activity

O=S1OCC2C(CO1)C1(Cl)C(Cl)=C(Cl)C2(Cl)C1(Cl)Cl (centres unmarked) [endosulfan]
chromatin binding activity (AUC) as share of the activity observed with E2 [1]: at least 10%

CCOP(=S)(OCC)SCSP(=S)(OCC)OCC [ethion]
chromatin binding activity (AUC) as share of the activity observed with E2 [1]: at least 10%

Clc1ccc(C(c2ccccc2Cl)C(Cl)(Cl)Cl)cc1 (centres unmarked) [o,p'-DDT]
chromatin binding activity (AUC) as share of the activity observed with E2 [1]: at least 10%
